# In US20180280397A1, “RATIONAL COMBINATION THERAPY FOR THE TREATMENT OF CANCER” (Memorial Sloan Kettering Cancer Center, priority 2015, published 2018):
# pIC50: −log10 of the molar value. “Also recorded” adds a separate entry of the source.
# Experiments:
# [1] = test system: epichaperome; experiment: Induction of epichaperome, native gel of HSP90 complexes in treated cancer cells; assay type: cell-based; conditions: cells pretreated with paclitaxel for 1 h then drug washed off
# Protocol: Cells were cultured using the procedure described in Example 1. The proteotoxic stressor (e.g., paclitaxel or bortezomib) was added for 6 hours and then the cells were lysed. The homogenate was applied for separation on a gel under native conditions.
# For the wash off studies (FIG. 8d), cells were cultured and then treated with paclitaxel (referred to as PAC in figure) for 1-2 hours to mimic in vivo conditions. The paclitaxel was then washed off to determine how long the epichaperome is maintained in vitro.
# [2] = test system: BT20 triple negative breast cancer cells; experiment: Incucyte kinetic growth assay; assay type: cell-based; conditions: for effect on cell confluency, agent alone: 2 μM paclitaxel or 5 μM PU-H71; for remaining live cells and regrowth after removal of agents: between 130 h and approximately 230 h
# Protocol: MDA-MD-231 and BT20 triple negative breast cancer cells were seeded in tissue culture treated dishes. Once confluent to approximately 50% of the vessel surface area, the cells were treated with medium containing 2 μM paclitaxel, 5 μM PU-H71, vehicle (DMSO), or a combination of 2 μM paclitaxel and 5 μM PU-H71 (together or sequential). Cells were grown in these conditions in an Essen IncuCyte housed in a standard cell culture incubator. Nine images per condition were collected every 2 hours for a total of 316 hours. After 24 hours under the aforementioned treatment conditions, paclitaxel treated cells were treated with medium containing 5 μM PU-H71 or the control vehicle, PU-H71 treated cells were treated with medium containing 2 μM paclitaxel or control vehicle, and the cells treated with vehicle and the combination of PU-H71 with paclitaxel were treated with medium containing control vehicle. All secondary drug additions were added to existing medium containing the original treatment. The existing medium was additionally diluted twice more with medium containing the control vehicle; each dilution occurring 24 hours after the previous. After 96 hours in culture, the medium was aspirated from each well and replaced with cell-appropriate medium with no pharmacological agents. As stated above, cells were monitored for a total of 316 hours (i.e., […] after complete removal of pharmacological agents).
# [3] = test system: primary breast tumors; experiment: Ex vivo treatment of primary breast cancer specimens; assay type: cell-based; conditions: 24 h
# Protocol: Primary breast cancer specimens. Patient tissue procurement was authorized through institutionally review board-approved bio-specimen protocol#09-121 at Memorial Sloan Kettering Cancer Centre (New York, N.Y.). Specimens were treated for 24 h with the indicated concentrations of PU-H71. Following treatment, slices were fixed in 4% formalin solution for 1 h then stored in 70% ethanol. For tissue analysis, slices were embedded in paraffin, sectioned, slide-mounted, and stained with haematoxylin and eosin. Tissue slides were assessed blindly by a breast cancer pathologist who gauged the apoptosis present in the tumor as well as any effect to normal tissue.
# Primary breast tumor protocol. The ex vivo protocol employed on this study is depicted schematically in FIG. 4. Sample preparation and treatment are detailed in Ex vivo treatment response of primary tumors and/or associated metastases for preclinical and clinical development of therapeutics. Corben A D, Uddin M M, Crawford B, Farooq M, Modi S, Gerecitano J, Chiosis G, Alpaugh M L. J Vis Exp. 2014 Oct 2; (92):e52157.
# [4] = test system: triple-negative breast cancer mouse models; conditions: pre-clinical; cited from earlier work
# [5] = test system: cancer cell lines; experiment: Cell viability by Annexin V staining in type 1 and type 2 cancer cells; assay type: cell-based; conditions: for apoptotic sensitivity, type 1 tumors / apoptotic sensitivity, type 2 tumors: Annexin V staining
# Protocol: (FIG. 3c). Cells were treated with 1 μM PU-H71-FITC. At 4 h post treatment, cells were washed twice with FACS buffer. To measure PU-H71-FITC binding in live cells, cells were stained with 7-AAD in FACS buffer at room temperature for 10 min, and analyzed by flow cytometry (BD Biosciences). Cell viability was determined using Annexin v staining. […]
# [6] = Safety and body weight monitoring in tumor-bearing mice; assay type: in vivo
# Protocol: Pre-formulated Abraxane® (5 mg/ml) was used.
# Five mice were administered the vehicle control.
# [7] = test system: HSP90 in the epichaperome complex; experiment: PU-H71-beads depletion of HSP90 species from cell lysates, isoelectric focusing; assay type: binding
# Text: The supernatant was applied to native gel separation followed by immunoblotting with HSP90 and other epichaperome complex components (left, example for MDAMB468) or nanopro isoelectric focusing and immunoblotting ([…], shown for all 3 cells). Duplicates of each experimental condition are presented. Data were graphed to indicate the relative binding affinity of PU-H71 to the HSP90 species as expressed in the 3 cell types.
# [8] = test system: primary acute myeloid leukemias; experiment: Ex vivo treatment of primary acute myeloid leukemia samples; assay type: cell-based
# Protocol: Primary acute myeloid leukemia. Cryopreserved primary AML samples were obtained with informed consent and Weill Cornell Medical College institutional review board approval, and from the University of Pennsylvania Stem Cell & Xenograft Core Facility.
# Epichaperome abundance determined by the PU-FITC flow cytometry assay. Cells were treated with 1 μM PU-H71-FITC. At 4 h post treatment, cells were washed twice with FACS buffer (PBS-0.5% FBS). To measure PU-H71-FITC binding in live cells, cells were stained with 7-AAD in FACS buffer at room temperature for 10 min, and analyzed by using an BD-LSR-II or BD-Canto cytometry (BD Biosciences). Cell viability was determined using Annexin-V staining. At 48 h post 1 μM PUH71 treatment, cells were stained with Annexin-V BD Horizon-V450 (BD Biosciences) and 7-AAD in Annexin-V buffer, and subjected to flow cytometry to measure viability determined by AnnexinV/7AAD double negative gates.
# [9] = test system: SUDHL4 DLBCL cells; experiment: Cell cycle analysis and caspase-3 activation by flow cytometry; assay type: cell-based
# Protocol: To further establish the potency of a combination of a proteotoxic agent and an Hsp90 inhibitor, in vitro assays were performed on lymphoma cells treated with Doxorubicin (DOX). DOX is a topoisomerase inhibitor that intercalates into DNA to induce DNA damage and oxidative stress. The interaction of DOX and PU-H71 was evaluated using standard criteria for synergy, the median effect/Combination Index (CI) method. A dose-response matrix was used as a means to systematically test multiple ratios of DOX:PU-H71 for interaction in sequential or simultaneous schedules of exposure. […] The effect of each drug and their combination on cell cycle and apoptosis in lymphoma cells with low to medium epichaperome levels, such as the SUDHL4 DLBCL cells was evaluated (FIG. 18c).
# SUDHL4 DLBCL cells were exposed to PU-H71 and DOX or combinations in different schedules as indicated. Caspase-3 activation was measured by flow cytometry using PE-conjugated anti-active Caspase-3 antibody (FIG. 18C). Cell cycle analysis was performed in parallel and is shown in the inset at top left of each scatterplot. Frequency of hypodiploid population is indicated.
# [10] = test system: HER2+ tumors; conditions: patients with progressive disease after trastuzumab therapy; cited from earlier work
# [11] = test system: BJAB Burkitt lymphoma cells; experiment: MTS viability assay, DOX followed by PU-H71; assay type: cell-based; conditions: Homo sapiens, 24 h
# Protocol: BJAB Burkitt lymphoma cells were exposed to serial dilutions of DOX for 24 h prior to addition of 500 nM PU-H71. Viability was measured 24 h later using standard MTS assay. Sextuplicate data points were averaged and normalized against untreated (DOX alone) or PU-H71-treated (DOX followed by PU-H71) controls. Data is presented as mean±SD.
structure (smiles),measurement,setting,value
"CC(=O)O[C@H]1C(=O)[C@@]2(C)[C@H]([C@H](OC(=O)c3ccccc3)[C@]3(O)C[C@H](OC(=O)[C@H](O)[C@@H](NC(=O)c4ccccc4)c4ccccc4)C(C)=C1C3(C)C)[C@]1(OC(C)=O)CO[C@@H]1C[C@@H]2O [paclitaxel, reference compound]",time of decrease of epichaperome to endogenous levels,[1],≤ 24 h
same,time of peak epichaperome levels,[1],5 to 7 h
same,"effect on cell confluency, agent alone",[2],cytotoxic effect
same,remaining live cells and regrowth after removal of agents,[2],a few live cells and these cells start to regrow
"CC(C)NCCCn1c(Sc2cc3c(cc2I)OCO3)nc2c(N)ncnc21 [PU-H71, 8-(6-Iodo-benzo[1,3]dioxol-5-ylsulfanyl)-9-(3-isopropylamino-propyl)-9H-purin-6-ylamine]",apoptosis / killing of tumors expressing stable multimeric epichaperome forms,[3],most effectively killed; also recorded: readily underwent apoptosis
same,sensitivity of adjacent benign tissue,[3],insensitive
same,sensitivity of tumors not enriched in the epichaperome (type 2),[3],mostly unaffected; also recorded: far less sensitive
same,single-agent anti-tumor effect,[4],most potent targeted single-agent anti-tumor effect yet reported
same,cell death,"[5]; cells enriched in the epichaperome vs cells with lower levels, 1 μM, 48 h",more likely to die
same,sensitivity to killing,"[5]; cells with AHA-1 levels reduced by siRNA, 24 h",less amenable to killing
same,adverse effects,"[6]; Example 13: NCI-H1975, HCC1806 or MDA-MB-231 bearing mice, ip once a week, PU-H71 75 mg/kg, Abraxane 30 mg/kg",No adverse effects were observed
same,adverse effects,"[6]; Example 14: MiaPaca2 bearing mice, Abraxane 30 mpk iv or ip 1x wk, PU-H71 75 mpk ip 1x or 2x wk, 40-day treatment",No adverse effects were observed
same,adverse effects,"[6]; Example 15: HCC1806 bearing mice, Abraxane 30 mpk iv 1x wk, PU-H71 75 mpk ip 1x or 2x wk, 40-day treatment",No adverse effects were observed
same,"effect on cell confluency, agent alone",[2],cytotoxic effect
same,remaining live cells and regrowth after removal of agents,[2],a few live cells and these cells start to regrow
same,relative binding affinity for HSP90 species,"[7]; epichaperome / stress HSP90 vs housekeeping, normal cell HSP90",higher affinity for the stress HSP90 species; also recorded: higher affinity and selectivity
same,amount of epichaperome in the lysates,[7]; increasing amounts of PU-H71 attached to a solid support,dose-dependent reduction
same,sensitivity of non-malignant lymphocytes in the AML samples,[8],insensitive
same,sensitivity of type 2 tumors,[8],mostly unaffected
same,killing of leukemias expressing stable multimeric epichaperome forms,[8]; n=40,most effectively killed
same,effect on cell cycle,[9]; 24 h exposure to 1 μM PU-H71,G1/S arrest
CCNC(=O)c1noc(-c2cc(C(C)C)c(O)cc2O)c1-c1ccc(CN2CCOCC2)cc1 [NVP-AUY-922],"apoptotic sensitivity, type 1 tumors",[5]; 48 h,effectively killed
same,"apoptotic sensitivity, type 2 tumors",[5]; 48 h,refractory
CO[C@H]1/C=C\C=C(/C)C(=O)NC2=CC(=O)C(NCCN(C)C)=C(C[C@@H](C)C[C@H](OC)[C@H](O)[C@@H](C)/C=C(\C)[C@@H]1OC(N)=O)C2=O [17-DMAG],clinical response,[10],elicited responses
"COc1cccc2c1C(=O)c1c(O)c3c(c(O)c1C2=O)C[C@@](O)(C(=O)CO)C[C@@H]3O[C@H]1C[C@H](N)[C@H](O)[C@H](C)O1 [DOX, Doxorubicin]",pIC50,"[11]; 500 nM PU-H71 added sequentially 24 h after DOX, viability 24 h later",7.12
same,pIC50,"[11]; DOX alone, DOX 24 h, viability measured 24 h later",6.40
same,effect on cell cycle,[9]; 24 h exposure to doses of DOX below the IC50,loss of S-phase fraction and accumulation in G2/M
CC1(C)CC(=O)c2c(C(F)(F)F)nn(-c3ccc(C(N)=O)c(N[C@H]4CC[C@H](O)CC4)c3)c2C1 [SNX2112],"apoptotic sensitivity, type 1 tumors",[5]; 48 h,effectively killed
same,"apoptotic sensitivity, type 2 tumors",[5]; 48 h,refractory
